Measurements from patent US12150447B2, “Plant growth regulator” (University of Washington, priority 2017, dated 2024).

Experiments:
[1] = biological target: T1, mutant auxin receptor (TIR1 F79S) (Arabidopsis thaliana, UniProt Q570C0, F79S); experiment: Evaluation of binding to auxin receptor (yeast two-hybrid assay), mutant TIR1 F79S; settings: yeast two-hybrid according to Test Example 1
T1 construct: expressed in transfected cells; host or cells: Saccharomyces cerevisiae strain EGY48

[2] = biological target: T2, mutant auxin receptor (TIR1 F79G) (Arabidopsis thaliana, UniProt Q570C0, F79G); experiment: Evaluation of binding to auxin receptor (yeast two-hybrid assay), mutant TIR1 F79G; settings: for TIR1 F79G: minimum concentration of the test compound at which the well turns blue: Table 2, repeated from Test Example 1, Table 1 for comparison; for mut TIR: minimum concentration of the test compound in which the well turns blue: yeast EGY48, LacZ reporter, X-gal, 30° C. for 3 days, TIR1 F79G with AUX/IAA protein
T2 construct: expressed in transfected cells; host or cells: Saccharomyces cerevisiae strain EGY48
T2 sequence (Q570C0 whole entry F79G, one chain of several): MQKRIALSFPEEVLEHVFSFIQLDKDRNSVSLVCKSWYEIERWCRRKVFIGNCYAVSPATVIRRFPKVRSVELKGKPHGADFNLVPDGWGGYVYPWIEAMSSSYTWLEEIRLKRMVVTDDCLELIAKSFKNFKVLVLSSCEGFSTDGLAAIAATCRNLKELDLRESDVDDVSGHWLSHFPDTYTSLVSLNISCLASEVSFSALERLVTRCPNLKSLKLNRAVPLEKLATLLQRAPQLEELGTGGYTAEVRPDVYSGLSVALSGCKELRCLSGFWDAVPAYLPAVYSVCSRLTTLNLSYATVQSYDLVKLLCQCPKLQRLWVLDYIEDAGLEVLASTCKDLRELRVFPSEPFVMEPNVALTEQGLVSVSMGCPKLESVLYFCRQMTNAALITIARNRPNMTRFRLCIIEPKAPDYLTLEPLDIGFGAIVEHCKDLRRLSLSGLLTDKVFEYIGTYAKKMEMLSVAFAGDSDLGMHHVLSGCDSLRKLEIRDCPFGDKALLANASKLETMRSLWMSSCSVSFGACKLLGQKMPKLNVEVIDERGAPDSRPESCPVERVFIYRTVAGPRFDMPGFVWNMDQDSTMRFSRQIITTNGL
Text: (§1) Test Example 1: Evaluation of Binding to Auxin Receptor (Yeast Two-Hybrid Assay
(§2) Specifically, the inventors set up the assay in the following manner.
Yeast strain EGY48 was transformed into a plasmid (pSH18-34) containing a LacZ expression cassette (LexA-operon: LacZ reporter) that is transcriptionally regulated by the LexA-operon, a plasmid derived from pGLex313 containing an expression cassette of LexA-DNA-binding domain fusion protein A (the wild-type auxin receptor: SEQ ID NO. 1, or mutant auxin receptor (TIR1 F79G) where the amino acid residue 79 (phenylalanine) in the wild-type is mutated to a glycine: SEQ ID NO. 2), and a plasmid derived from pJG4-5 containing an expression cassette of B42 transcription activator fusion protein B (AUX/IAA protein: SEQ ID NO: 3). The transformant was cultured at 30° C. on an agar plate made of yeast growth medium (minimal SD base and -His/-Trp/-Ura dropout supplement). The colonies were picked up and incubated overnight in liquid SD/-His/-Trp/-Ura medium at 30° C. Afterwards, the medium was replaced with a liquid medium composed of minimal SD/Gal/Raf base, -His/-Trp/-Ura dropout supplement, 50 mM Na-phosphate buffer (pH 7.0), […] X-gal, and various concentrations of test compounds. After incubation at 30° C. for 3 days, the medium containing yeast was transferred to a white 96-well plate (flat bottom) and observed. The lower the concentration of the test compound when blue color appears, the higher the binding between the test compound and the auxin receptor (wild type or mutant) is. Conversely, higher the concentration of test compound when the blue color appears for the first time, the lower the binding between the test compound and the auxin receptor (wild type or mutant).
(§3) In Table 1, the concentration of “wt TIR” indicates the minimum concentration of the test compound in which the well turns blue when the wild type auxin receptor is used, whereas the concentration of “mut” indicates the minimum concentration of the test compound in which the well turns blue when the mutant auxin receptor (TIR1 F79G) is used.

[3] = biological target: T3, mutant auxin receptor (TIR1 F79A) (Arabidopsis thaliana, UniProt Q570C0, F79A); experiment: Evaluation of binding to auxin receptor (yeast two-hybrid assay), mutant TIR1 F79A; settings: yeast two-hybrid according to Test Example 1
T3 construct: expressed in transfected cells; host or cells: Saccharomyces cerevisiae strain EGY48
T3 sequence (Q570C0 whole entry F79A, one chain of several): as the sequence (Q570C0 whole entry F79G, one chain of several) above, with G79A counted along it

[4] = biological target: T4, wild-type auxin receptor (TIR1) (Arabidopsis thaliana, UniProt Q570C0); experiment: Evaluation of binding to auxin receptor (yeast two-hybrid assay), wild-type receptor; settings: yeast EGY48, LacZ reporter, X-gal, 30° C. for 3 days; wild type auxin receptor with AUX/IAA protein
T4 construct: expressed in transfected cells; host or cells: Saccharomyces cerevisiae strain EGY48
T4 sequence (Q570C0 1-594): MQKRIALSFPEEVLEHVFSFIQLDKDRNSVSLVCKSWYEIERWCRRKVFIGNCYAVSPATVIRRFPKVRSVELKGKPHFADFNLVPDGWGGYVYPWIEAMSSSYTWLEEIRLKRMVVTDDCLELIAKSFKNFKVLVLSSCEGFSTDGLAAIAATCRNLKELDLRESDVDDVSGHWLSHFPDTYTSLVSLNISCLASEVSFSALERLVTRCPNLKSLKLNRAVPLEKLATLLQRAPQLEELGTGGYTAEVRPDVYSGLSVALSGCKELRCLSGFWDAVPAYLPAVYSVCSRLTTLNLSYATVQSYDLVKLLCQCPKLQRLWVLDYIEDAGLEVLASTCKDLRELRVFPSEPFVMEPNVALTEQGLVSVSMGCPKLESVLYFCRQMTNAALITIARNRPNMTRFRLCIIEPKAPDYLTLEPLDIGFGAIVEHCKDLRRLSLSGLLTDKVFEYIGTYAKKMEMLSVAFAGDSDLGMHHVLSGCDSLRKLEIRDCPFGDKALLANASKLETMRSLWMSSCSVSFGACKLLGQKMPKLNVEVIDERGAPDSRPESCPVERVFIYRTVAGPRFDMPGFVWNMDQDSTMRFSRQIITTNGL
T4 sequence (Q38822 1-93 partner limits assumed): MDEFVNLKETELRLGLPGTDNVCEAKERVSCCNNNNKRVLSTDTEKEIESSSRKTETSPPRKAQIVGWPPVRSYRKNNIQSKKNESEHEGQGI
Procedure: as §1, §2
The transformant was cultured at 30° C. on an agar plate made of yeast growth medium (minimal SD base and -His/-Trp/-Ura dropout supplement). The colonies were picked up and incubated overnight in liquid SD/-His/-Trp/-Ura medium at 30° C. Afterwards, the medium was replaced with a liquid medium composed of minimal SD/Gal/Raf base, -His/-Trp/-Ura dropout supplement, 50 mM Na-phosphate buffer (pH 7.0), […] X-gal, and various concentrations of test compounds. After incubation at 30° C. for 3 days, the medium containing yeast was transferred to a white 96-well plate (flat bottom) and observed.
as §3

[5] = tested on: Arabidopsis seeds expressing the mutant auxin receptor (TIR1 F79G); experiment: Root elongation assay (Test Example 5), TIR1 F79G seeds; assay type: in vivo; settings: 35S:TIR1 F79G seeds, 0.1 μM; FIG. 4
Procedure: (§4) FIG. 4 This is a diagram showing the results of root elongation assay in Test Example 5. On the left side of the photo, “35S:TIR1^F79G” indicates experiments using Arabidopsis seeds having an expression cassette of a mutant auxin receptor (TIR1 F79G), whereas “35S:TIR1^WT” indicates Arabidopsis seeds expressing the wild type auxin receptor (TIR1). On the upper part of the photo, “DMSO” indicates experiments where the plants are not treated with test compounds, “IAA(1) 0.1 μM” indicates experiments where auxin (indole-3-acetic acid) is used as the test compound, and “21 0.1 μM” indicates experiments where the auxin derivative synthesized in Example 30 is used as the test compound.
(§5) Arabidopsis seeds having the expression cassette of mutant auxin receptor (TIR1 F79G) (SEQ ID NO: B) or wild-type Arabidopsis seeds without said expression cassette were sterilized and stored at 4° C. in the dark for several days. The seeds were transferred to 0.5× Murashige and Skoog (MS) liquid medium and incubated for 1 day at 22° C. in the light with shaking at 140 rpm. The test compound was added to the medium at various concentrations and the seeds were further incubated for 1 week. […] If an auxin response signal has been produced in the root, root elongation will be suppressed.
(§6) Test Example 5: Evaluation of Plant Growth Regulating Action 4 (Root Elongation Assay […]

[6] = tested on: wild-type Arabidopsis seeds; experiment: Root elongation assay (Test Example 5), wild-type seeds; assay type: in vivo; settings: wild-type seeds (35S:TIR1 WT in FIG. 4), 0.1 μM
Procedure: as §4, §5, §6

T1 sequence (Q570C0 whole entry F79S, one chain of several): as the sequence (Q570C0 whole entry F79G, one chain of several) above, with G79S counted along it

Row | SMILES | TIR1 F79S: minimum concentration of test compound at which the well turns blue [1] [µM] | TIR1 F79G: minimum concentration of the test compound at which the well turns blue [2] [µM] | mut TIR: minimum concentration of the test compound in which the well turns blue [2] [µM] | TIR1 F79A: minimum concentration of the test compound at which the well turns blue [3] [µM] | wt TIR: minimum concentration of the test compound in which the well turns blue [4] [µM] | inhibition of root elongation [5] | inhibition of root elongation [6]
1 | O=C(O)Cc1c[nH]c2ccc(C3CCCCC3)cc12 [Compound 15, 2-(5-cyclohexyl-1H-indol-3-yl)acetic acid] | 0.001 | 0.001 | 0.001 | 0.0001 | 0.1 | – | –
2 | Cc1ccc(C)c(-c2ccc3[nH]cc(CC(=O)O)c3c2)c1 [MK-221, 2-(5-(2,5-dimethylphenyl)-1H-indol-3-yl)acetic acid] | – | – | 10 | – | >100 | – | –
3 | CC(C)(C)c1ccc(-c2ccc3[nH]cc(CC(=O)O)c3c2)cc1 [MK-198, 2-(5-(4-(tert-butyl)phenyl)-1H-indol-3-yl) acetic acid] | – | – | 10 | – | 100 | – | –
4 | O=C(O)Cc1c[nH]c2ccc(C34CC5CC(CC(C5)C3)C4)cc12 [Compound 21, 2-(5-((3r, 5r, 7r)-adamantan-1-yl)-1H-indol-3-yl)acetic acid] | 0.0001 | 0.001 | 0.001 | 0.00001 | 0.1 | inhibited root elongation | does not inhibit root elongation
5 | O=C(O)Cc1c[nH]c2ccc(-c3ccc4ccccc4c3)cc12 [Example 27D, 5-(2-naphthyl)-indole-3-acetic acid] | – | – | 0.1 | – | 10 | – | –
